Experiments:
lolitrem B intoxication = assay: KBr pre-treatment in rodent model of PRGT (lolitrem B injection), tremor analysis and novel arena test; assay type: in vivo, mice
Procedure: Mice were administered 2500 ppm KBr in their drinking water for 7 days prior to injection with lolitrem B (2 mg/kg IP).

[1] = Serum and cerebrospinal fluid bromide concentrations in the sheep trial; assay type: in vivo; conditions: intoxicated sheep
Procedure: Venous blood samples collected for biochemical analysis and haematocrit (PCV), and urine for USG, at three specific time points during the experiment for all animals: 1) on entry to the trial; 2) on date of entry to the end of trial protocol and, 3) on day of necropsy.
A full clinical examination was performed prior to euthanasia. At euthanasia, 100 I.U. heparin (Provet Riverina Pty Ltd) was injected into the jugular vein, followed shortly by Lethabarb (20 mL/40 kg LW). Immediately after euthanasia, the ventral articulation of C1 was exposed and cerebrospinal fluid (CSF) collected using a 23 g needle. The head was then removed and subjected to perfusion fixation. Briefly, the carotid arteries were exposed and a small catheter inserted and ligated to secure the perfusion lines. Two liters of 0.1% phosphate buffered saline (PBS) containing 3000 I.U of heparin/L was then slowly perfused via the ligated vessels at a pressure of 90 mm Hg using a Microgon peristaltic Pump (Microgon, Laguna Hills, Calif.). Once complete this was replaced with 4% paraformaldehyde (Sigma-Alrich) in 0.1% PBS and a further two liters allowed to perfuse slowly through the tissues of the head. Once complete, catheters were removed and the whole head placed at 4° C. overnight to complete fixation. Twenty-four hours post perfusion fixation the brain was removed from the skull and placed in 10% formal saline for storage until dissection for processing to wax sections.
Absorbance was measured with a spectrophotometer at 440 nm. […] The lower limit of quantification (LOQ) was 25 μg/mL.

[2] = 2500 ppm KBr in drinking water 7 days prior to lolitrem B 2 mg/kg IP, one hour post injection
[3] = 2500 ppm KBr in drinking water 7 days, 3.5 hours post lolitrem B 2 mg/kg IP

[Br-].[K+] [potassium bromide]
peak tremor frequency (lolitrem B intoxication; [2]): reduced
tremor to movement ratio (lolitrem B intoxication; [2]): reduced
movement in novel arena test (lolitrem B intoxication; [3]): increased
time freezing in novel arena test (lolitrem B intoxication; [3]): reduce
mean serum bromide concentration ([1]; 6 hours after oral 300 mg/kg potassium bromide, n=3): 899.43 µg/mL
final mean serum bromide concentration ([1]; 48 hours after oral 300 mg/kg potassium bromide, n=6): 804.34 µg/mL

— patent publication US9913858B2, “Prevention and treatment of toxicosis” (priority 2013, dated 2018)
